Values joined by “and” are separate entries in the source; they are usually repeats but may differ in a detail not shown here. Equal values may be shown once.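 Cells were grown in 96-well plates and exposed to each compound for 48 hours at five concentrations; endpoints were interpolated linearly between bracketing concentrations, or set to the highest concentration if not reached. GI50 is the concentration that inhibits growth by half. TGI: total growth inhibition.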
Key:
Test in all cases: inhibition of tumour cell growth, NCI panel, 48 h
LOX IMVI melanoma = system: LOX IMVI melanoma
A549 NSCLC = system: A549 NSCLC
T-47D breast = system: T-47D breast
CAKI-1 renal = system: CAKI-1 renal
SNB-75 CNS = system: SNB-75 CNS
SK-MEL-2 melanoma = system: SK-MEL-2 melanoma
SK-MEL-5 melanoma = system: SK-MEL-5 melanoma
SK-OV-3 ovarian = system: SK-OV-3 ovarian
SF-268 CNS = system: SF-268 CNS
SR leukemia = system: SR leukemia

Structure (SMILES)	GI50 (LOX IMVI melanoma) [µM]	TGI (LOX IMVI melanoma) [µM]	GI50 (A549 NSCLC)	TGI (A549 NSCLC)	GI50 (T-47D breast) [µM]	TGI (T-47D breast) [µM]	GI50 (CAKI-1 renal) [µM]	TGI (CAKI-1 renal) [µM]	GI50 (SNB-75 CNS)	TGI (SNB-75 CNS)	GI50 (SK-MEL-2 melanoma)	TGI (SK-MEL-2 melanoma)	GI50 (SK-MEL-5 melanoma)	TGI (SK-MEL-5 melanoma)	GI50 (SK-OV-3 ovarian)	TGI (SK-OV-3 ovarian)	GI50 (SF-268 CNS)	TGI (SF-268 CNS)	GI50 (SR leukemia)	TGI (SR leukemia)
COc1ccc(CN2CCc3c(Cl)nc(N)nc3C2=O)c(OC)c1	13.2	26.7	47.2 µM	> 100 µM	11	39.8	43.6	> 100	14.4 µM	32.7 µM	16.6 µM	34.8 µM	13.5 µM	26.7 µM	24.2 µM	88 µM	13.6 µM	27.3 µM	1.03 µM	10.7 µM
CC(=O)O[C@@H]1C=CC(=O)C2(CC(=O)O[C@@H]2/C=C(\C)CCC=C(C)C)C1 (stereo partly specified)	0.229	0.743	2.04 µM	4.91 µM	0.389	0.873	0.744	2.3	1.33 µM	2.83 µM	1.51 µM	4.43 µM	1.31 µM	3.1 µM	2 µM	4.49 µM	1.05 µM	2.31 µM	0.0339 µM	31.6 µM
C#Cc1cccc(NC(=O)Nc2ccccc2NC(=O)CCl)c1	13.3	25.6	25.4 µM	> 82.5 µM	31.1	> 82.5	15.1	33.8	9.11 µM	19.8 µM	22 µM	63.9 µM	14.2 µM	26.9 µM	> 82.5 µM	> 82.5 µM	15.2 µM	43.2 µM	23.8 µM	> 82.5 µM
CCCCC1(N=[N+]=[N-])C(=O)c2cccc3c2N(CCC3)C1=O (stereo unspecified)		> 100		> 100 µM		> 100		> 100		> 100 µM		> 100 µM		> 100 µM		> 100 µM		> 100 µM		> 100 µM
CC(=O)OCC1OC(n2cc(F)c(=O)[nH]c2=O)C(OC(C)=O)C1OC(C)=O (stereo unspecified)		> 63.9		> 100 µM		> 100		> 100		> 100 µM		> 100 µM		> 100 µM		> 100 µM		> 100 µM		> 78.5 µM
CCc1nc(N)nc(N)c1-c1ccc(Cl)cc1	2.82	> 100	2.23 µM	> 100 µM	45.5	> 100	6.34	> 100	> 100 µM	> 100 µM		> 100 µM	4.14 µM	> 100 µM and 19.8 µM	84.9 µM	> 100 µM	6.89 µM	> 100 µM	18.7 µM	> 100 µM
COc1ccc(C(=O)c2cc3c(N)c(C(=O)Nc4cccc(Cl)c4)sc3nc2C)cc1	2.39	> 33.3	1.67 µM	> 33.3 µM	2.52	> 33.3	1.28	> 33.3	0.743 µM	2.75 µM	11.2 µM	> 33.3 µM	0.92 µM	2.6 µM	1.58 µM	> 33.3 µM	2.49 µM	> 33.3 µM	1.15 µM	> 33.3 µM
CC[C@]1(O)C[C@@H]2CN(Cc3c([nH]c4ccccc34)[C@@](C(=O)OC)(c3cc4c(cc3OC)N(C)[C@H]3[C@@](O)(C(=O)OC)[C@H](OC(C)=O)[C@]5(CC)[C@@H]6C[C@@H]6CN6CC[C@]43[C@@H]65)C2)C1	0.0304	> 4.38	0.234 µM	> 4.38 µM	0.0562	> 4.38	> 4.38	> 4.38	0.0393 µM	> 4.38 µM	0.033 µM	> 4.38 µM	0.119 µM	1.85 µM	0.0841 µM	> 4.38 µM	0.148 µM	> 4.38 µM	0.0174 µM	> 4.38 µM
COc1ccc(NC(=O)c2ccc(NC3=C(Cl)C(=O)N(Cc4ccccc4)C3=O)cc2)cc1	3.06	8.43	10.4 µM	29.9 µM	9.79	77.5	1.89	3.5	12.9 µM	34.6 µM	10.4 µM	56.1 µM	10 µM	32.1 µM	18.4 µM	36.2 µM	31.5 µM	> 100 µM	0.766 µM	3.61 µM
O=P(O)(O)OC1C(OP(=O)(O)O)C(OP(=O)(O)O)C(OP(=O)(O)O)C(OP(=O)(O)O)C1OP(=O)(O)O (stereo unspecified)	> 2000	> 2000	> 2000 µM	> 2000 µM	> 2000	> 2000	> 1560	> 2000	> 1120 µM	> 2000 µM	> 2000 µM	> 2000 µM	> 1560 µM	> 2000 µM	> 2000 µM	> 2000 µM	> 2000 µM	> 2000 µM	> 1780 µM	> 2000 µM
CC(C)(O)Cn1c(=O)c(Oc2ccc(F)cc2F)cc2cnc(NC3CCOCC3)nc21	> 25	> 25	> 25 µM	> 25 µM	> 25	> 25	> 25	> 25	> 22.3 µM	> 25 µM	> 25 µM	> 25 µM	> 25 µM	> 25 µM	> 25 µM	> 25 µM	> 25 µM	> 25 µM	> 25 µM	> 25 µM
O=C(Nc1ccc(Cl)cc1)NS(=O)(=O)c1ccc2c(c1)CCC2		> 79.9	11.9 µg/mL	97.7 µM and 31.3 µg/mL		74.6		> 100	28.1 µg/mL	> 100 µM and 64.7 µg/mL	21.6 µg/mL	> 100 µM and 48.6 µg/mL	20.6 µg/mL	> 74 µM and 40 µg/mL	18 µg/mL	86.1 µM and 41.9 µg/mL	15.7 µg/mL	> 100 µM and 35.7 µg/mL	19.3 µg/mL	> 100 µM and 91.6 µg/mL
CCc1cc(C(N)=O)ccc1-n1nc(C(C)C)c2c(-n3cnc(-c4cnn(C)c4)c3)ccnc21	0.913	5.56	2.18 µM	> 100 µM	1.83	> 100	5.61	> 100	4.11 µM	> 100 µM	4.41 µM	> 100 µM	3.98 µM	> 100 µM	0.492 µM	> 100 µM	8.76 µM	> 100 µM	0.546 µM	> 100 µM
COc1ccc(/C=C2/SC(=Nc3c(C)nn(-c4ccccc4)c3N)NC2=O)cc1	3.88	15.8	2.74 µM	24 µM	3.96	45.3	2.82	15.7	3.43 µM	26.7 µM	3.99 µM	17.2 µM	3.23 µM	10.5 µM	3.65 µM	25.3 µM	4.84 µM	35.7 µM	3.63 µM	18 µM
O=C(Nc1nc2ncn(CCOC(=O)c3ccccc3)c2c(=O)[nH]1)c1ccccc1		> 100		> 100 µM		> 100		> 100		> 71.7 µM		> 100 µM		> 100 µM		> 79.9 µM		> 100 µM		> 100 µM
CC/C=C/[C@@H]1C=C[C@@H]2CCC[C@H]2[C@@H]1CC[C@H](O)[C@H](C)N	1.58	2.92	2.26 µM	7.05 µM	1.52	3.3	3.73	20.5	0.538 µM	5.23 µM	2.11 µM	4.73 µM	1.69 µM	3.16 µM	1.69 µM	4.15 µM	1.71 µM	3.42 µM	1.39 µM	3 µM

Reference: PubChem BioAssay (NCI)
